This is an account of results in article PMC5218480 (PLoS ONE, 2017).

The assay has as its system MV-4-11 cells. As to the kind of experiment: Gene expression microarray analysis (Affymetrix PrimeView) and GSEA. Type of assay: cell-based, human. Also on record: RFU PODN (11730768_x_at) / Fold change /veh PODN (11730768_x_at) / RFU LINC00158 (11744669_a_at) / Fold change /veh LINC00158 (11744669_a_at) / RFU DUSP10 (11751237_a_at) / Fold change /veh DUSP10 (11751237_a_at) / RFU ID3 (11757404_x_at) / Fold change /veh ID3 (11757404_x_at) / RFU PLEKHG5 (11737974_s_at) / Fold change /veh PLEKHG5 (11737974_s_at) / RFU LRRC4B (11730491_at) / Fold change /veh LRRC4B (11730491_at) / RFU GIMAP4 (11747438_a_at) / Fold change /veh GIMAP4 (11747438_a_at) / RFU KRT8 (11758183_x_at) / Fold change /veh KRT8 (11758183_x_at) / RFU CNN1 (11734310_a_at) / Fold change /veh CNN1 (11734310_a_at) / RFU VPS37D (11726825_at) / Fold change /veh VPS37D (11726825_at) / RFU C10orf10 (11716522_x_at) / Fold change /veh C10orf10 (11716522_x_at) / RFU KIR2DL2 /// KIR2DL4 /// KIR2DL5A /// KIR2DL5B /// KIR2DS1 /// KIR2DS2 /// KIR2DS3 /// KIR2DS4 /// KIR3DL3 /// KIR3DL3 /// KIR3DS1 (11738374_at) / Fold change /veh KIR2DL2 /// KIR2DL4 /// KIR2DL5A /// KIR2DL5B /// KIR2DS1 /// KIR2DS2 /// KIR2DS3 /// KIR2DS4 /// KIR3DL3 /// KIR3DL3 /// KIR3DS1 (11738374_at) / RFU C1QL1 (11718748_at) / Fold change /veh C1QL1 (11718748_at) / RFU TMPRSS4 (11747572_a_at) / Fold change /veh TMPRSS4 (11747572_a_at) / RFU HAMP (11756126_x_at) / Fold change /veh HAMP (11756126_x_at) / RFU RNFT2 (11725882_a_at) / Fold change /veh RNFT2 (11725882_a_at) / RFU NR4A2 (11747474_a_at) / Fold change /veh NR4A2 (11747474_a_at) / RFU ABCC12 (11746883_a_at) / Fold change /veh ABCC12 (11746883_a_at) / RFU TMEM136 (11760407_x_at) / Fold change /veh TMEM136 (11760407_x_at) / RFU CLDN22 /// WWC2 (11732394_at) / Fold change /veh CLDN22 /// WWC2 (11732394_at) / RFU HLA-DPB1 (11760878_x_at) / Fold change /veh HLA-DPB1 (11760878_x_at) / RFU SPINT1 (11716480_a_at) / Fold change /veh SPINT1 (11716480_a_at) / RFU GAP43 (11754022_s_at) / Fold change /veh GAP43 (11754022_s_at) / RFU A4GNT (11735810_at) / Fold change /veh A4GNT (11735810_at) / RFU PRB3 (11715151_x_at) / Fold change /veh PRB3 (11715151_x_at) / RFU TUBB4B (11761932_at) / Fold change /veh TUBB4B (11761932_at) / RFU CAPN14 (11732068_a_at) / Fold change /veh CAPN14 (11732068_a_at) / RFU TMCC2 (11721928_a_at) / Fold change /veh TMCC2 (11721928_a_at) / RFU IRGQ (11745062_a_at) / Fold change /veh IRGQ (11745062_a_at) / RFU FAM174B (11720279_a_at) / Fold change /veh FAM174B (11720279_a_at) / RFU TMPRSS4 (11748680_a_at) / Fold change /veh TMPRSS4 (11748680_a_at) / RFU FAM212B (11763350_a_at) / Fold change /veh FAM212B (11763350_a_at) / RFU PLEKHG5 (11743358_a_at) / Fold change /veh PLEKHG5 (11743358_a_at) / RFU ZSCAN30 (11745921_a_at) / Fold change /veh ZSCAN30 (11745921_a_at) / RFU CMKLR1 (11741424_a_at) / Fold change /veh CMKLR1 (11741424_a_at) / RFU LOC101060620 /// MAPK8IP1 (11723275_at) / Fold change /veh LOC101060620 /// MAPK8IP1 (11723275_at) / RFU SPTSSB (11747773_x_at) / Fold change /veh SPTSSB (11747773_x_at) / RFU PRSS12 (11739890_at) / Fold change /veh PRSS12 (11739890_at) / RFU BIN1 (11741810_x_at) / Fold change /veh BIN1 (11741810_x_at) / RFU WNT11 (11732464_a_at) / Fold change /veh WNT11 (11732464_a_at) / RFU C10orf10 (11716521_a_at) / Fold change /veh C10orf10 (11716521_a_at) / RFU C5orf56 (11738089_at) / Fold change /veh C5orf56 (11738089_at) / RFU CYB561 (11721691_x_at) / Fold change /veh CYB561 (11721691_x_at) / RFU ANKRD19P (11752326_a_at) / Fold change /veh ANKRD19P (11752326_a_at) / RFU OR2T12 /// OR2T33 /// OR2T8 (11738714_s_at) / Fold change /veh OR2T12 /// OR2T33 /// OR2T8 (11738714_s_at) / RFU VCAN (11748164_a_at) / Fold change /veh VCAN (11748164_a_at) / RFU JSRP1 (11732532_at) / Fold change /veh JSRP1 (11732532_at) / RFU KRTAP10-11 (11738290_x_at) / Fold change /veh KRTAP10-11 (11738290_x_at) / RFU MYO3A (11730013_a_at) / Fold change /veh MYO3A (11730013_a_at) / RFU EBF3 (11725865_a_at) / Fold change /veh EBF3 (11725865_a_at) / RFU CAMK2N1 (11719241_x_at) / Fold change /veh CAMK2N1 (11719241_x_at) / RFU C5orf56 (11738088_a_at) / Fold change /veh C5orf56 (11738088_a_at) / RFU OLFML3 (11715873_a_at) / Fold change /veh OLFML3 (11715873_a_at) / RFU LOC100653217 /// NTM (11731650_a_at) / Fold change /veh LOC100653217 /// NTM (11731650_a_at) / RFU MAPK11 (11762145_a_at) / Fold change /veh MAPK11 (11762145_a_at) / RFU FIZ1 (11724087_x_at) / Fold change /veh FIZ1 (11724087_x_at) / RFU OASL (11726364_x_at) / Fold change /veh OASL (11726364_x_at) / RFU SOX15 (11748057_x_at) / Fold change /veh SOX15 (11748057_x_at) / RFU CD79A (11719716_a_at) / Fold change /veh CD79A (11719716_a_at) / RFU HIST1H1D (11736915_at) / Fold change /veh HIST1H1D (11736915_at) / RFU CASKIN2 (11723855_a_at) / Fold change /veh CASKIN2 (11723855_a_at) / RFU LOC730098 (11760151_x_at) / Fold change /veh LOC730098 (11760151_x_at) / RFU OR4N2 (11742367_at) / Fold change /veh OR4N2 (11742367_at) / RFU PRRT2 (11749266_a_at) / Fold change /veh PRRT2 (11749266_a_at) / RFU SNX32 (11753110_a_at) / Fold change /veh SNX32 (11753110_a_at) / RFU CDHR5 (11726645_a_at) / Fold change /veh CDHR5 (11726645_a_at) / RFU RCAN1 (11760418_a_at) / Fold change /veh RCAN1 (11760418_a_at) / RFU FAM167A (11723789_a_at) / Fold change /veh FAM167A (11723789_a_at) / RFU FAM26E (11764081_at) / Fold change /veh FAM26E (11764081_at) / RFU ISYNA1 (11749810_s_at) / Fold change /veh ISYNA1 (11749810_s_at) / RFU ACY1 (11761880_at) / Fold change /veh ACY1 (11761880_at) / RFU 11764098_at / Fold change /veh 11764098_at / RFU SAMD14 (11745864_x_at) / Fold change /veh SAMD14 (11745864_x_at) / RFU NPB (11741838_a_at) / Fold change /veh NPB (11741838_a_at) / RFU TMPRSS6 (11731388_a_at) / Fold change /veh TMPRSS6 (11731388_a_at) / RFU KRTAP10-2 (11738614_at) / Fold change /veh KRTAP10-2 (11738614_at) / RFU ARHGAP8 /// PRR5-ARHGAP8 (11727945_x_at) / Fold change /veh ARHGAP8 /// PRR5-ARHGAP8 (11727945_x_at) / RFU KRTAP5-7 /// NADSYN1 (11734609_at) / Fold change /veh KRTAP5-7 /// NADSYN1 (11734609_at) / RFU RASL12 (11751679_a_at) / Fold change /veh RASL12 (11751679_a_at) / RFU CDKN2B (11736163_a_at) / Fold change /veh CDKN2B (11736163_a_at) / RFU PRF1 (11729649_at) / Fold change /veh PRF1 (11729649_at) / RFU, ZNF638 /// ZNF638-IT1 / Fold change vs veh, ZNF638 /// ZNF638-IT1 / RFU, PANK3 / Fold change vs veh, PANK3 / RFU, SH3YL1 / Fold change vs veh, SH3YL1 / RFU, ZEB2 / Fold change vs veh, ZEB2 / RFU, NRIP1 / Fold change vs veh, NRIP1 / RFU, PTTG1IP / Fold change vs veh, PTTG1IP / RFU, CAPN2 / Fold change vs veh, CAPN2 / RFU, MED14 / Fold change vs veh, MED14 / RFU, SNORA58 / Fold change vs veh, SNORA58 / RFU, C1orf63 / Fold change vs veh, C1orf63 / RFU, LRRFIP1 / Fold change vs veh, LRRFIP1 / RFU, NDUFAF7 / Fold change vs veh, NDUFAF7 / RFU, SLC12A2 / Fold change vs veh, SLC12A2 / RFU, IBTK / Fold change vs veh, IBTK / RFU, ESF1 / Fold change vs veh, ESF1 / Fold change vs veh, TMEM50B / RFU, TAOK1 / Fold change vs veh, TAOK1 / RFU, ACBD3 / Fold change vs veh, ACBD3 / RFU, TMA16 / Fold change vs veh, TMA16 / RFU, RWDD3 / Fold change vs veh, RWDD3 / RFU, BCAT1 / Fold change vs veh, BCAT1 / RFU, EDEM3 / Fold change vs veh, EDEM3 / RFU, TMEM33 / Fold change vs veh, TMEM33 / RFU, WDR75 / Fold change vs veh, WDR75 / RFU, AHCTF1 / Fold change vs veh, AHCTF1 / RFU, TFRC / Fold change vs veh, TFRC / RFU, ZDHHC17 / Fold change vs veh, ZDHHC17 / RFU, NOM1 / Fold change vs veh, NOM1 / RFU, ARL8B / Fold change vs veh, ARL8B / RFU, ZBTB11 / Fold change vs veh, ZBTB11 / RFU, TAMM41 / Fold change vs veh, TAMM41 / RFU, KIAA1704 /// LOC100996395 / Fold change vs veh, KIAA1704 /// LOC100996395 / RFU, ING1 / Fold change vs veh, ING1 / RFU, TRMT61B / Fold change vs veh, TRMT61B / RFU, FUBP3 / Fold change vs veh, FUBP3 / RFU, TP53 / Fold change vs veh, TP53 / RFU, TNKS2 / Fold change vs veh, TNKS2 / RFU, ZFP14 / Fold change vs veh, ZFP14 / RFU, ACTR2 / Fold change vs veh, ACTR2 / RFU, PPP3R1 / Fold change vs veh, PPP3R1 / RFU, PIK3R1 / Fold change vs veh, PIK3R1 / RFU, HNRNPA1 / Fold change vs veh, HNRNPA1 / RFU, RNF170 / Fold change vs veh, RNF170 / RFU, ZNF28 / Fold change vs veh, ZNF28 / RFU, RNGTT / Fold change vs veh, RNGTT / RFU, OGT / Fold change vs veh, OGT / RFU, BRD1 / Fold change vs veh, BRD1 / RFU, MARS / Fold change vs veh, MARS / RFU, ZNF655 / Fold change vs veh, ZNF655 / RFU, FAHD1 / Fold change vs veh, FAHD1 / RFU, BDP1 / Fold change vs veh, BDP1 / RFU, LRRCC1 / Fold change vs veh, LRRCC1 / RFU, ARID1A / Fold change vs veh, ARID1A / RFU, ZNF146 / Fold change vs veh, ZNF146 / RFU, ZNF330 / Fold change vs veh, ZNF330 / RFU, GPN3 / Fold change vs veh, GPN3 / RFU, C9orf123 / Fold change vs veh, C9orf123 / RFU, N4BP2L2 / Fold change vs veh, N4BP2L2 / RFU, ARFIP1 / Fold change vs veh, ARFIP1 / RFU, FAM179B / Fold change vs veh, FAM179B / RFU, BCL10 / Fold change vs veh, BCL10 / RFU, UHRF1BP1L / Fold change vs veh, UHRF1BP1L / RFU, BET1 / Fold change vs veh, BET1 / RFU, CNOT2 / Fold change vs veh, CNOT2 / RFU, ZNF268 / Fold change vs veh, ZNF268 / Fold change vs veh, ZNF507 / RFU, DGCR2 / Fold change vs veh, DGCR2 / RFU, WDSUB1 / Fold change vs veh, WDSUB1 / Fold change vs veh, HSP90B1 /// MIR3652 / RFU, ADSS / Fold change vs veh, ADSS / RFU, GK / Fold change vs veh, GK / RFU, ZNF148 / Fold change vs veh, ZNF148 / RFU, TAF9 / Fold change vs veh, TAF9 / RFU, SLC1A5 / Fold change vs veh, SLC1A5 / RFU, SLMO2 / Fold change vs veh, SLMO2 / RFU, ABCC4 / Fold change vs veh, ABCC4 / RFU, LOC101060439 /// RAP1B / Fold change vs veh, LOC101060439 /// RAP1B / RFU, RFX7 / Fold change vs veh, RFX7 / RFU, GTPBP10 / Fold change vs veh, GTPBP10 / RFU, CNEP1R1 / Fold change vs veh, CNEP1R1 / RFU, BIVM-ERCC5 /// ERCC5 / Fold change vs veh, BIVM-ERCC5 /// ERCC5 / RFU, ILF3 / Fold change vs veh, ILF3 / RFU 11762660_at / Fold change /veh 11762660_at / RFU VCAN (11757783_s_at) / Fold change /veh VCAN (11757783_s_at) / RFU DDX43 (11728927_at) / Fold change /veh DDX43 (11728927_at) / RFU KRT8 (11758188_x_at) / Fold change /veh KRT8 (11758188_x_at) / RFU NKD1 (11759106_at) / Fold change /veh NKD1 (11759106_at) / RFU SRD5A1 (11742802_a_at) / Fold change /veh SRD5A1 (11742802_a_at) / RFU TPSAB1 /// TPSB2 (11721975_s_at) / Fold change /veh TPSAB1 /// TPSB2 (11721975_s_at) / RFU GSTM3 (11746129_a_at) / Fold change /veh GSTM3 (11746129_a_at) / RFU IL23R (11737362_x_at) / Fold change /veh IL23R (11737362_x_at) / RFU TMEM51 (11727254_a_at) / Fold change /veh TMEM51 (11727254_a_at) / RFU PIWIL2 (11732686_x_at) / Fold change /veh PIWIL2 (11732686_x_at) / RFU ORM1 (11744905_x_at) / Fold change /veh ORM1 (11744905_x_at) / RFU CCDC152 (11743942_at) / Fold change /veh CCDC152 (11743942_at) / RFU ECM1 (11717891_a_at) / Fold change /veh ECM1 (11717891_a_at) / RFU IL23R (11748794_a_at) / Fold change /veh IL23R (11748794_a_at) / RFU TNFAIP8L3 (11732012_x_at) / Fold change /veh TNFAIP8L3 (11732012_x_at) / RFU MBOAT4 (11741988_at) / Fold change /veh MBOAT4 (11741988_at) / RFU 11764193_at / Fold change /veh 11764193_at / RFU TMEM53 (11763286_at) / Fold change /veh TMEM53 (11763286_at) / RFU MAGEB2 (11727129_at) / Fold change /veh MAGEB2 (11727129_at) / RFU TMEM200A (11744735_a_at) / Fold change /veh TMEM200A (11744735_a_at) / RFU CCDC152 (11751479_a_at) / Fold change /veh CCDC152 (11751479_a_at) / RFU FAM211A (11726209_a_at) / Fold change /veh FAM211A (11726209_a_at) / RFU RGS16 (11746705_a_at) / Fold change /veh RGS16 (11746705_a_at) / RFU VCAN (11755009_s_at) / Fold change /veh VCAN (11755009_s_at) / RFU RHOB (11743442_s_at) / Fold change /veh RHOB (11743442_s_at) / RFU RGS16 (11720943_a_at) / Fold change /veh RGS16 (11720943_a_at) / RFU RGS16 (11720944_at) / Fold change /veh RGS16 (11720944_at) / RFU, VPS4B / Fold change vs veh, VPS4B / RFU, CREB1 / Fold change vs veh, CREB1 / RFU, DNAJC13 / Fold change vs veh, DNAJC13 / RFU, GNAQ / Fold change vs veh, GNAQ / RFU, CDK5R1 / Fold change vs veh, CDK5R1 / RFU, ZRANB3 / Fold change vs veh, ZRANB3 / RFU, CUL4A / Fold change vs veh, CUL4A / RFU, CCNY / Fold change vs veh, CCNY / RFU, UFL1 / Fold change vs veh, UFL1 / RFU, COG3 / Fold change vs veh, COG3 / RFU, DIAPH2 / Fold change vs veh, DIAPH2 / RFU, SKA2 / Fold change vs veh, SKA2 / RFU, AFF3 / Fold change vs veh, AFF3 / RFU, LMF1 / Fold change vs veh, LMF1 / RFU, IPO11 / Fold change vs veh, IPO11 / RFU, DFFB / Fold change vs veh, DFFB / RFU, FOXP1 / Fold change vs veh, FOXP1 / RFU, CARD8 / Fold change vs veh, CARD8 / RFU, STRN3 / Fold change vs veh, STRN3 / RFU, ADK / Fold change vs veh, ADK / RFU, RASSF2 / Fold change vs veh, RASSF2 / RFU, WIPF1 / Fold change vs veh, WIPF1 / RFU, LARP1B / Fold change vs veh, LARP1B / RFU, RASA1 / Fold change vs veh, RASA1 / RFU, RB1 / Fold change vs veh, RB1 / RFU, PPFIA1 / Fold change vs veh, PPFIA1 / RFU, MAT2A / Fold change vs veh, MAT2A / RFU, CCT5 / Fold change vs veh, CCT5 / RFU, WDR92 / Fold change vs veh, WDR92 / RFU, CUX1 / Fold change vs veh, CUX1 / RFU, TTC7A / Fold change vs veh, TTC7A / RFU, TMEM135 / Fold change vs veh, TMEM135 / RFU, DEPTOR / Fold change vs veh, DEPTOR / RFU, CPM / Fold change vs veh, CPM / RFU, DNAJB6 / Fold change vs veh, DNAJB6 / RFU, CACNA2D3 / Fold change vs veh, CACNA2D3 / RFU, DTX4 / Fold change vs veh, DTX4 / RFU, TFCP2 / Fold change vs veh, TFCP2 / RFU, GMCL1 /// GMCL1P1 / Fold change vs veh, GMCL1 /// GMCL1P1 / RFU, AEBP2 / Fold change vs veh, AEBP2 / RFU, SNHG1 /// SNORD22 /// SNORD25 /// SNORD26 /// SNORD27 /// SNORD28 /// SNORD29 /// SNORD31 / Fold change vs veh, SNHG1 /// SNORD22 /// SNORD25 /// SNORD26 /// SNORD27 /// SNORD28 /// SNORD29 /// SNORD31 / Fold change (Aza/veh), C12orf56 (ProbeSet 11735607_a_at) / Fold change (ACY-1035/veh), C12orf56 (ProbeSet 11735607_a_at) / Fold change (Aza/veh), FGFR1OP (ProbeSet 11751329_s_at) / Fold change (ACY-1035/veh), FGFR1OP (ProbeSet 11751329_s_at) / Fold change (Aza/veh), VPS36 (ProbeSet 11739960_a_at) / Fold change (ACY-1035/veh), VPS36 (ProbeSet 11739960_a_at) / RFU SYPL1 (11715823_x_at) / Fold change /veh SYPL1 (11715823_x_at) / RFU IGFBP7 (11715501_s_at) / Fold change /veh IGFBP7 (11715501_s_at) / RFU REEP3 (11722064_at) / Fold change /veh REEP3 (11722064_at) / RFU IGLL1 (11728026_x_at) / Fold change /veh IGLL1 (11728026_x_at): dose or concentration left out as unconfirmed. As to conditions: MV-4-11 cells, 48 hours.

For the compound `Nc1ccc(-c2cccs2)cc1NC(=O)c1ccc2c(c1)cc(C1CC1)n2CCN1CCOCC1` [ACY-1035], the “Fold change /veh MAGEB2 (11727129_at)” value is 0.99.
